The values below come from patent US5610003A, “Two-equivalent magenta photographic couplers with activity-modifying ballasting groups” (Eastman Kodak Company, priority 1995, dated 1997).

A short description of one data set: π value of R^4 group. On the set-up: key: π from partition coefficients of derivative (Px) vs parent (PH). The format is physicochemical. The following applies: substituent R^4. The method, then: R^4 is a monovalent organic group with a π value of at least 2.1. As used herein, the π value is determined by the equation: […]
where Px is the partition coefficient of a derivative and PH is the partition coefficient of the parent compound. A detailed description of the determination of the π value is provided by A. Leo, C. Hansch and D. Elkins, Chem. Rev., 71, 525 (1971).

Data set [1] in a line: Taft steric parameter Es of sterically hindering group. It is filed as physicochemical. More on the design: key: Taft steric parameter Es, referenced to H = 0 (more negative = bulkier). An excerpt:
Y is a monovalent organic group which sterically hinders leuco dye formation. The sterically hindering group is characterizedby a negative Es value greater than the absolute value of -1.5 and more preferably greater than the absolute value of -2.0. The Es value refers to the Taft steric parameter, referenced to H=O and defined as: […]
where k refers to the rate constant for the acid hydrolysis of esters of the type X--CH2 COOR and 1.24 is the hydrolysis rate of formate. A detailed description of this parameter is provided by S. H. Unger and C. Hansch, Prog. Phys. Org. Chem., 12, 91 (1976).

Consider `CCCCCCC(Oc1ccc(C(C)(C)CC(C)(C)C)cc1C(C)(C)CC(C)(C)C)C(=O)NC1=NN(c2c(Cl)cc(Cl)cc2Cl)C(=O)C1n1cccn1` (stereo not drawn) [Example 1], for which the “π Value for R^4” value in “π value of R^4 group” amounted to 3.2. Besides, in data set [1], the “Es Value for Sterically Hindering Group” value is reported as -2.6. The corresponding values for `CCCCCCC(Oc1ccc(C(C)(C)CC)cc1C(C)(C)CC)C(=O)NC1=NN(c2c(Cl)cc(Cl)cc2Cl)C(=O)C1n1cccn1` (stereo not drawn) [Example 5] are 3.2 and -3.0.

As to `CCCCCCCCCCCC(=O)Nc1ccc(Oc2ccc(C(C)(C)CC)cc2C(C)(C)CC)c(C(=O)NC2=NN(c3c(Cl)cc(Cl)cc3Cl)C(=O)C2n2cccn2)c1` (stereo not drawn) [Example 13], the “Es Value for Sterically Hindering Group” value in data set [1] is -3.0. As for `CCCCCCCCC(Oc1ccc(C(C)(C)CC)cc1C(C)(C)CC)C(=O)NC1=NN(c2c(Cl)cc(Cl)cc2Cl)C(=O)C1n1cccn1` (stereo not drawn) [Example 6], the “π Value for R^4” value in the data set “π value of R^4 group” is reported as 4.3. Further, the “Es Value for Sterically Hindering Group” value in data set [1] was -3.0. The corresponding values for `CCCCCCCCCCCCC(Oc1ccc(C)cc1C(C)(C)CC(C)(C)C)C(=O)NC1=NN(c2c(Cl)cc(Cl)cc2Cl)C(=O)C1n1cccn1` (stereo not drawn) [Example 16] are 6.5 and -2.6.

With `CCCCCCCCCCC(Oc1ccc(S(=O)(=O)c2ccc(OCc3ccccc3)cc2)cc1)C(=O)Nc1ccc(Oc2ccc(C(C)(C)CC)cc2C(C)(C)CC)c(C(=O)NC2=NN(c3c(Cl)cc(Cl)cc3Cl)C(=O)C2n2cccn2)c1` (stereo not drawn) [Example 14], in data set [1], the “Es Value for Sterically Hindering Group” value is given as -3.0. With `CCCCCCCCCCCCC(Oc1ccc(CCCCC)cc1CCCCC)C(=O)NC1=NN(c2c(Cl)cc(Cl)cc2Cl)C(=O)C1n1cccn1` (stereo not drawn) [Example 10], in “π value of R^4 group”, the “π Value for R^4” value came to 6.5. For the same compound, in data set [1], the “Es Value for Sterically Hindering Group” value was -1.6.

In the case of `CCC(C)(C)c1ccc(Oc2ccc([N+](=O)[O-])cc2C(=O)NC2=NN(c3c(Cl)cc(Cl)cc3Cl)C(=O)C2n2cccn2)c(C(C)(C)CC)c1` (stereo not drawn) [Example 12], the “Es Value for Sterically Hindering Group” value in data set [1] is on record as -3.0.

Regarding `CCCCCCCCCCCCCCCCC(Oc1ccc(C(C)(C)CC)cc1C(C)(C)CC)C(=O)NC1=NN(c2c(Cl)cc(Cl)cc2Cl)C(=O)C1n1cccn1` (stereo not drawn) [Example 8], the “π Value for R^4” value in “π value of R^4 group” was 8.6. Moreover, in data set [1], the “Es Value for Sterically Hindering Group” value is -3.0. The corresponding values for `CCCCCCCCCCCCC(Oc1cc(C(C)(C)C)cc(C(C)(C)C)c1)C(=O)NC1=NN(c2c(Cl)cc(Cl)cc2Cl)C(=O)C1n1cccn1` (stereo not drawn) [Example 11] are 6.5 and -2.8. With `CCC(C)(C)c1ccc(OCC(=O)Nc2ccc(Oc3ccc(C(C)(C)CC)cc3C(C)(C)CC)c(C(=O)NC3=NN(c4c(Cl)cc(Cl)cc4Cl)C(=O)C3n3cccn3)c2)c(C(C)(C)CC)c1` (stereo not drawn) [Example 15], the “Es Value for Sterically Hindering Group” value in data set [1] was -3.0.

Consider `CCCCCCCCCCCCC(Oc1ccc(C(C)(C)CC(C)(C)C)cc1)C(=O)NC1=NN(c2c(Cl)cc(Cl)cc2Cl)C(=O)C1n1cccn1` (stereo not drawn) [Example 17], for which the “π Value for R^4” value in the data set “π value of R^4 group” was determined as 6.5. Moreover, the “Es Value for Sterically Hindering Group” value in data set [1] is on record as -2.6. The corresponding values for `CCCCCCC(Oc1cc2c(cc1C(C)(C)CC(C)(C)C)OC(C)(C)CC2(C)C)C(=O)NC1=NN(c2c(Cl)cc(Cl)cc2Cl)C(=O)C1n1cccn1` (stereo not drawn) [Example 9] are 4.3 and -2.6. For `CCCCCCCCCCCCC(Oc1ccc(C(C)(C)CC(C)(C)C)cc1C(C)(C)CC(C)(C)C)C(=O)NC1=NN(c2c(Cl)cc(Cl)cc2Cl)C(=O)C1n1cccn1` (stereo not drawn) [Example 3] the same measures were 6.5 and -2.6. As for `CCCCCCCCC(Oc1ccc(C(C)(C)CC(C)(C)C)cc1C(C)(C)CC(C)(C)C)C(=O)NC1=NN(c2c(Cl)cc(Cl)cc2Cl)C(=O)C1n1cccn1` (stereo not drawn) [Example 2], in “π value of R^4 group”, the “π Value for R^4” value is on record as 4.3. Besides, the “Es Value for Sterically Hindering Group” value in data set [1] was -2.6.

`CCCCCCCCCCCCC(Oc1ccc(C(C)(C)CC)cc1C(C)(C)CC)C(=O)NC1=NN(c2c(Cl)cc(Cl)cc2Cl)C(=O)C1n1cccn1` (stereo not drawn) [Example 7]: in the data set “π value of R^4 group”, the “π Value for R^4” value is 6.5. The “Es Value for Sterically Hindering Group” value in data set [1] is listed as -3.0. The corresponding values for `CCCCC(Oc1ccc(C(C)(C)CC)cc1C(C)(C)CC)C(=O)NC1=NN(c2c(Cl)cc(Cl)cc2Cl)C(=O)C1n1cccn1` (stereo not drawn) [Example 4] are 2.1 and -3.0.
